# Like-named read-outs stand apart in the source and are kept apart here.
# How the values were obtained:
# Alternaria solani = assay: PDA plate mycelial radial growth inhibition (paint film mildew fungi), Table 1; type: cell-based; details: PDA plates, read-out: EC75 (concentration giving 75% control of hyphal growth)
# Protocol: (§1) The test was run as follows. Potato dextrose agar (PDA) was dissolved in water (30 g PDA/1) and autoclaved at 15 psi for 15 minutes. PDA was purchased from Difco. Triazoles were dissolved in a small quantity of methanol and added to autoclaved, molten potato dextrose agar in a dilution series to give 0.01, 0.1, 1, 10 and 100 ug ml^-1. Final methanol content of the highest dose was included. The molten agar was pipetted into Petri plates (15 ml per plate) and allowed to set. Two 5 mm mycelial plugs were removed from mother cultures of each of the fungal species tested, and were placed near the edge of the test plates. When colonies were 10-40 mm in diameter, the radial mycelial growth was measured and EC75 values were determined on log-probit paper.
# EC75 values (concentration giving 75% control of hyphal growth) are reported.
# Piricularia oryzae = assay: microbe, parasite or virus in culture; type: cell-based; details: 72 h
# Aspergillus niger = assay: Paint film mildewcide popsickle stick test, Table 6; details: A. niger, 10 days, 30° C., 95% RH
# Protocol: (§2) Testing is described below.
# (§3) Testing was done in a commercial acrylic-based latex paint with conventional pigments, dispersants, and the like. Texanol (R) is trimethyl-1,3-pentanediol monisobutyrate supplied by Eastman Chemical. "Latex" is a latex of a copolymer of butyl acrylate and methyl methacrylate.
# (§4) To a sealable container was charged 100 parts of the paint formulation and the desired triazole concentration. The sample was homogenized for 15 minutes each, then blended and remixed.
# (§5) Three triazoles were evaluated for their effectiveness as paint film mildewcides at […] and 10 lbs/100 gallons in a laboratory popsickle stick test. Untreated controls were included in the test.
# (§6) Duplicate popsickle sticks painted with the treated and untreated paint sample were inoculated with Aureobasidium pullulans and Aspergillus niger. The sticks were inoculated for 10 days at 30° C. and 95% RH and samples were rated for fungal growth.
# Aureobasidium pullulans = assay: as above; details: A. pullulans, 10 days, 30° C., 95% RH
# Protocol: as §2, §3, §4, §5, §6
# Trametes Versicolor = assay: Wood decay fungi radial growth inhibition on PDA, Table 7; type: cell-based; details: room temperature, read-out: EC50 (concentration giving 50% control of hyphal growth)
# Protocol: (§7) The test was run as follows. Potato dextrose agar (PDA) was dissolved in water (39 g/l) and autoclaved at 15 psi for 15 min. PDA was purchased from Difco. The triazole was dissolved in a small quantity of dimethylsulfoxide (DMSO) and diluted to appropriate concentrations with the same solvent. Ten microliters of the appropriate solution was added to each of five wells of a Falcon 6 well tissue culture dish. To the sixth well was added ten microliters of DMSO as a control. Five ml of molten PDA was then added to each of the wells to give […] μg ml-1 of triazole. The plate was gently agitated to afford a uniform mixture. Upon cooling, the dishes were inoculated with a six mm agar plug from a freshly grown culture of the test organism. The assay plates were then incubated at room temperature and evaluated when the radial growth in the control well had reached approximately 30 mm. The radial growth for the treated wells was measured and the growth inhibition and EC50 values were calculated using non-linear regression analysis. Data are shown in Table 7 for triazoles VIII and IX (Table). EC50 values (concentration giving 50% control of hyphal growth) are reported.
# Phialophora mutabilis = assay: as above; type: cell-based; details: Coniochaeta mutabilis, room temperature, read-out: EC50 (concentration giving 50% control of hyphal growth)
# Protocol: as §7
# Gloeophyllum tradeum = assay: as above; type: cell-based; details: read-out: EC50 (concentration giving 50% control of hyphal growth)
# Protocol: as §7
# Poria placenta = assay: as above; type: cell-based; details: room temperature, read-out: EC50 (concentration giving 50% control of hyphal growth)
# Protocol: as §7
# Aureobasidum pullulans = assay: PDA plate mycelial radial growth inhibition (paint film mildew fungi), Table 2; type: cell-based; details: read-out: EC50 (concentration giving 50% control of hyphal growth)
# Protocol: as §1
# (§8) EC50 values (concentration giving 50% control of hyphal growth) are reported.
# Aspergillus flavus = assay: as above; type: cell-based; details: read-out: EC50 (concentration giving 50% control of hyphal growth)
# Protocol: as §1, §8
# Cladisporium resinae = assay: as above; type: cell-based; details: read-out: EC50 (concentration giving 50% control of hyphal growth)
# Protocol: as §1, §8
# [1] = pH 3.5, read-out: EC90 for mycelial growth
# [2] = pH 4.8, read-out: EC90 for mycelial growth
# [3] = pH 5.4, read-out: EC90 for mycelial growth
# [4] = pH 6.3, read-out: EC90 for mycelial growth
# [5] = pH 7.2, read-out: EC90 for mycelial growth
# [6] = pH 7.7, read-out: EC90 for mycelial growth
# [7] = pH 8.7, read-out: EC90 for mycelial growth
# [8] = pH 9.8, read-out: EC90 for mycelial growth
# [9] = pH 11.2, read-out: EC90 for mycelial growth
Compound,EC90 (Piricularia oryzae; [1]) [µg/mL],EC90 (Piricularia oryzae; [2]) [µg/mL],EC90 (Piricularia oryzae; [3]) [µg/mL],EC90 (Piricularia oryzae; [4]) [µg/mL],EC90 (Piricularia oryzae; [5]) [µg/mL],EC90 (Piricularia oryzae; [6]) [µg/mL],EC90 (Piricularia oryzae; [7]) [µg/mL],EC90 (Piricularia oryzae; [8]) [µg/mL],EC90 (Piricularia oryzae; [9]) [µg/mL],"Fungal growth rating (Aspergillus niger; replicate 1, 1 lbs/100 gal)","Fungal growth rating (Aspergillus niger; replicate 1, 5 lbs/100 gal)","Fungal growth rating (Aspergillus niger; replicate 1, 10 lbs/100 gal)","Fungal growth rating (Aspergillus niger; replicate 2, 1 lbs/100 gal)","Fungal growth rating (Aureobasidium pullulans; replicate 1, 1 lbs/100 gal)","Fungal growth rating (Aureobasidium pullulans; replicate 2, 1 lbs/100 gal)",EC50 (Trametes Versicolor) [µg/mL],EC50 (Phialophora mutabilis) [µg/mL],EC50 (Gloeophyllum tradeum) [µg/mL],EC50 (Poria placenta) [µg/mL],EC50 (Aspergillus flavus) [µg/mL],also measured
"N#CC(CCc1ccc(Cl)cc1)(Cn1cncn1)c1ccccc1 (stereo not drawn) [I, α-[2-(4-chlorophenyl)ethyl]-α-phenyl-1H-1,2,4-triazole-1-propanenitrile]",0.5,0.1,0.1,0.1,0.1,0.1,0.1,0.1,0.1,4+,4+,3+,4+,2+,2+,–,–,–,–,–,"EC75 (Alternaria solani): 5 µg/mL; Fungal growth rating (Aspergillus niger; replicate 2, 5 lbs/100 gal): 3+; Fungal growth rating (Aspergillus niger; replicate 2, 10 lbs/100 gal): 3+"
"CCCCC(C#N)(Cn1cncn1)c1ccc(Cl)cc1 (stereo not drawn) [II, α-n-butyl-α-4-chlorophenyl-1H-1,2,4-triazole-1-propanenitrile]",5,4.5,4.5,4.5,4.5,4.5,5,4.5,4.5,3+,2+,1+,2+,3+,4+,–,–,–,–,–,"Fungal growth rating (Aureobasidium pullulans; replicate 1, 5 lbs/100 gal): 2+; Fungal growth rating (Aureobasidium pullulans; replicate 1, 10 lbs/100 gal): 2+; Fungal growth rating (Aureobasidium pullulans; replicate 2, 5 lbs/100 gal): 2+; Fungal growth rating (Aureobasidium pullulans; replicate 2, 10 lbs/100 gal): 1+"
"CCCCC(C#N)(Cn1cncn1)c1ccc(Cl)cc1 (stereo not drawn) [Structure IX, α-n-butyl-α-4-chlorophenyl-1H-1,2,4-triazole-1-propanenitrile]",–,–,–,–,–,–,–,–,–,–,–,–,–,–,–,0.118,1.45,0.313,0.228,1.2,EC50 (Aureobasidum pullulans): 0.5 µg/mL; EC50 (Cladisporium resinae): 1.7 µg/mL
"N#CC(CCc1ccc(Cl)cc1)(Cn1cncn1)c1ccccc1 (stereo not drawn) [Structure VIII, α-[2-(4-chlorophenyl)ethyl]-α-phenyl-1H-1,2,4-triazole-1-propanenitrile]",–,–,–,–,–,–,–,–,–,–,–,–,–,–,–,0.061,0.612,0.158,0.175,3.5,EC50 (Cladisporium resinae): 0.025 µg/mL

# Reference: patent US5223178A (priority 1990, dated 1993)
